Laboratory results from patent publication US10723726B2, “Solid forms of (Z)-4-(5-((3-benzyl-4-oxo-2-thioxothiazolidin-5-ylidene)methyl)furan-2-yl)benzoic acid” (GB006, INC., priority 2015, dated 2020).
“Also recorded” adds a separate entry of the source. Where a name gives a salt, the structure may show the parent alone. Read-outs that look alike come from different tables or passages of the source. Each block holds one compound with its values, some of them ahead of it.

What was measured:
in vivo [1] = conditions: male, Sprague-Dawley, rat
Method: (§1) In a second experiment, the dose solution was prepared in Tween-80 (0.02%) and 0.5% methyl cellulose in Milli-Q water. IP (2 mg/kg) and IV (1 mg/kg) dose solutions were prepared in a 5% DMSO and 95% PEG-200.
(§2) The PO (2 mg/kg) dose solution was prepared in Tween-80 (0.02%) and 0.5% methyl cellulose in Milli-Q water. The IV (1 mg/kg) dose solution was prepared in a solution of 5% DMSO and 95% PEG-200.
(§3) The routes of administration were namely PO (gavage), IP (bolus) and IV (bolus through tail vein). A total of four SD male rats were used aged between 5-6 weeks. The feeding regimen included 12 h fasting and the feed was provided 2 hrs after the dosage inoculation and water was provided ad libidum. The blood collection schedule for PO/IP was at 0.25, 0.5, 1, 2, 4, 8, 10 and 24 h, and for IV it was at 0.12, 0.25, 0.5, 1, 2, 4, 8 and 24 h. For PO dosage, tween-80 (0.02%) and 0.5% methyl cellulose prepared in milli-Q water were used as vehicles; for IP and IV dosage 5% DMSO and 95% PEG-200 were used as vehicles.
(§4) Stock solution (178 μg/mL) in methanol was further diluted using methanol: water (80:20, v/v) to obtain working solutions in the range of 10.4 to 20745 ng/mL.
(§5) 50 μL of sample was aliquoted in to pre-labeled vials. To it was added 200 μL of 10% tetrahydrofuran containing IS (100 ng/mL; tolbutamide) and mixed well, vortexed for 5 min followed by centrifugation for 5 min at 14000 rpm for at 4° C. Supernatant was separated and 5 μL of same was injected on LC-MS/MS.
(§6) Data Analysis: Individual concentration-time data were analyzed using WinNonlin (Version 5.3) by non-compartmental analysis (NCA) method.
(§7) The routes of administration were namely PO (gavage) and IV (bolus through tail vein). A total of four SD male rats were used aged between 5-6 weeks. The feeding regimen included 12 h fasting and the feed was provided 2 hrs after the dosage inoculation and water was provided ad libitum. The blood collection schedule for PO was at 0.25, 0.5, 1, 2, 4, 8, 10 and 24 h, and for IV it was at 0.12, 0.25, 0.5, 1, 2, 4, 8 and 24 h. For PO dosage, tween-80 (0.02%) and 0.5% methyl cellulose prepared in milli-Q water were used as vehicles; for IV dosage 10% DMSO and 90% PEG-200 were used as vehicles.

[2] = male, in vivo
Method: as §1, §2, §3, §4, §5, §6, §7

in vivo [3] = conditions: male, dog; for AUC0-t: AUC0-12 h
Method: The PO (2 mg/kg) dose solution of micronized LA1 was prepared in 0.1% Tween-80 0.5% (w/v) and methyl cellulose in water.
The objective of the study was to investigate the preclinical pharmacokinetic profile of LA1 (micronized powder) in Beagle dog. To delineate the plasma concentration vs. time curve and characterize the relevant pharmacokinetic parameters to generate data on the PK properties viz., bioavailability, half-life (b1/2), volume of distribution, Cmax, Tmax, AUC and elimination rate constant of LA1 in Beagle dog.
LA1 was a coarse material which was micronized using laboratory scale ball mill. […] The micronized LA1 was recovered, weighed and stored in glass container at room temperature. For intravenous drug administration, LA1 excipient compatibility assay for dosing in dogs were carried out.
In brief, a known amount of LA1 was loaded to a cylindrical capped container made of stainless steel followed by addition of stainless steel balls. The ball mills were rotated on their axis for total of 60 minutes (6 cycles X 10 minutes). The micronized LA1 was recovered, weighed and stored in glass bottle at room temperature.
Test system: Healthy Beagle dog weighing 10-12 kg (age 10 months), males were used for the study. Crossover design was adopted for the experiments wherein 02 dogs were used in the study for oral and intravenous administration. Both the animals were housed stainless steel cage provided with a hopper to hold pellet feed and a separate water hopper. Temperature and humidity was maintained at 22±3° C. and 40-70%, respectively. The illumination was controlled to give a sequence of 12 h light and 12 h dark cycle. All the animals were adapted to the experimental conditions for at least 5 days prior to dosing. All animals were provided with Pedigree™ standard pellet feed, except for 10 to 12 h before treatment and 4 h after the drug administration. Water was provided ad libidum.
Formulation and drug administration: Exactly 90 mg of the test item LA1 (micronized powder) was weighed and transferred to a mortar and briefly triturated with pestle. Small volume of vehicle [0.5% (w/v) Carboxy methyl cellulose with 0.1% Tween-80] in water was then added slowly with continuous trituration until a uniform suspension was obtained. The content was then transferred into the measuring cylinder. The mortar was rinsed till the complete transfer of test item into the measuring cylinder was ensured. The final volume was then made up to 225 mL with vehicle to get a uniform suspension with desired concentration of 0.4 mg/mL. Dosing formulations were given by oral gavage at a dose volume not exceeding 5 mL/kg.
Intravenous drug formulation: Hemolysis assay using dog whole blood was employed to assess the damage of red blood cells for selection of excipient for intravenous dosing. […] Exactly 22.5 mg of the test item (micronized powder) was weighed into a graduated tube. 2.25 mL of DMSO was added drop wise and mixed by vortex. Then, 40.50 mL of Polyethylene glycol 400 (PEG-400) was added in two to three fragments and vortex intermittently. Then 2.25 mL Ethanol was added drop wise and vortex to get clear solution. The formulation was subjected to ultra-sonication for 5 minutes.
Sample collection: Serial method was used for blood sampling. Blood samples were collected as mentioned in the study design section (7). The blood sample (−1.5 mL) was collected from saphenous vein into labeled tubes, containing 2% w/v K2EDTA solution, as an anticoagulant.

[4] = Histopathology (Example 19); type: in vivo, C57BL/6 mice; conditions: also seen in one animal of the control group
Method: HISTOPATHOLOGY. Histopathological examination was conducted using liver, kidney, lung, spleen, heart, and stomach samples.

[5] = system: murine melanoma B16-F10 tumors; experiment: Murine melanoma B16F10 allograft efficacy (Example 19); type: in vivo, C57BL/6 mice; conditions: 3 or 30 mg/kg daily for 15 days
Method: TUMOR CELLS. B16-F10 cells were cultured in DMEM cell culture medium supplemented with 10% FBS and 1% penicillin-streptomycin. The cells were maintained at 37° C. in […]. When the cells reached 75-80% confluence, they were harvested by trypsinization, washed, and counted. The cells were then re-suspended in serum free medium at a concentration of 0.1 million cells/75 μl.
TUMOR CELL INOCULATION. Cells were inoculated subcutaneously on the flank of black mice. Prior to inoculation, hair was trimmed and skin on the injection site (dorsal right flank) was swabbed with alcohol. Cells in serum free medium (0.1 million cells/75 μl) were mixed with Matrigel at a ratio of 3:1 and a total volume of 100 μl was injected into each animal with a 1 mL BD syringe attached to a 26 G needle.
RANDOMIZATION. Tumors were palpable around Day 7 of inoculation.
STATISTICAL CALCULATIONS. All statistical calculations were performed using Prism 5.0 (GraphPad Software Inc., USA). Comparisons of tumor size measurements during and at the termination of the study were made between the treatment groups and respective vehicle control groups using One Way ANOVA followed by Dunnett's multiple comparison tests. A p-value of less than 0.05 was considered significant.

[6] = Aqueous solubility by equilibration, HPLC analysis; type: physicochemical; conditions: for Appearance / Soln pH: after slurrying in water 4-5 days; for HPLC purity (%): after slurrying in water 4-5 days (chemical stability)
Method: An aliquot of the UHQ water test solvent (1 mL) was added to an accurately weighed sample of the LA1 salts and agitated at ambient temperature for a period of 4 days. A sample was withdrawn, filtered through a […], and analyzed by HPLC. HPLC was used to determine aqueous equilibrium solubility at ambient temperature. […] Samples were slurried in water for 4-5 days before analysis.

[7] = Humidity stress at 40° C./75% RH; type: physicochemical; conditions: 5-6 days
Method: The larger vials were capped, sealed with Parafilm and placed inside an oven at 40° C. for up to 6 days. Salts were then removed from these conditions and changes observed (e.g. color, deliquescence etc.) before being analyzed for weight change and by XRPD. Samples were examined visually after stressing, form composition confirmed by XRPD analysis and weight change recorded (Table 7).

[8] = Sprague-Dawley, rat, iv, 1 mg/kg
[9] = Sprague-Dawley, rat, po, 2 mg/kg
[10] = beagle, iv, 0.5 mg/kg, Plasma concentration
[11] = beagle, po, 0.5 mg/kg, Plasma concentration
[12] = Sprague-Dawley, rat, ip, 2 mg/kg

AUC (in vivo [1]; po, 2 mg/kg, AUC (with PO bioavailability)): 0.76 µM·h | AUC (in vivo [1]; po, 2 mg/kg, AUC in mM*hr): 0.76 µM·h | MRT (in vivo [1]; po, 2 mg/kg, MRT (hr)): 2.04 h | bioavailability (in vivo [1]; po, 2 mg/kg, Rat F %): 23% | half-life (in vivo [1]; po, 2 mg/kg, t1/2 (hr)): 1.1 h | Rat Cl ([2]; Sprague-Dawley): 23.4 mL/min/kg | Vss ([2]; Sprague-Dawley, rat): 2.14 L/kg | AUC0-t [2, 8]: 715 ng·h/mL | AUC0-∞ [2, 8]: 729 ng·h/mL | C0 [2, 8]: 1025 ng/mL | MRT [2, 8]: 1.47 h | Tlast [2, 8]: 12.0 h | Vd [2, 8]: 2.63 L/kg | AUC0-t [2, 9]: 319 ng·h/mL | AUC0-∞ [2, 9]: 336 ng·h/mL | Tlast [2, 9]: 6.50 h | Tmax [2, 9]: 0.88 h | concentration at 12 h (in vivo [3]; Beagle, iv, 0.5 mg/kg, Plasma concentration): 7.93 ng/mL | bioavailability (in vivo [3]; beagle, Absolute oral bioavailability): 50.6% | clearance (in vivo [3]; beagle, Dog Cl (ml/min/kg)): 2.1 mL/min/kg | bioavailability (in vivo [3]; beagle, Dog F % (absolute oral bioavailability)): 50% | AUC0-t (in vivo [3]; beagle, iv, 0.5 mg/kg): 1330 ng·h/mL | AUC(0-inf) (in vivo [3]; beagle, iv, 0.5 mg/kg, AUC0-inf): 1350 ng·h/mL | AUC(0-inf) (in vivo [3]; beagle, iv, 0.5 mg/kg, AUCinf): 1350 ng·h/mL | C0 (in vivo [3]; beagle, iv, 0.5 mg/kg, C0): 1330 ng/mL | Cmax (in vivo [3]; beagle, iv, 0.5 mg/kg, Co/Cmax): 2040 ng/mL | concentration at 0.05 h (in vivo [3]; [10]): 1570 ng/mL | concentration at 0.1 h (in vivo [3]; [10]): 897 ng/mL | concentration at 0.25 h (in vivo [3]; [10]): 717 ng/mL | concentration at 0.5 h (in vivo [3]; [10]): 505 ng/mL | concentration at 1 h (in vivo [3]; [10]): 405 ng/mL | bioavailability (in vivo [3]; beagle, po, 0.5 mg/kg, Absolute Bioavailability F %): 50.6% | concentration at 4 h (in vivo [3]; [11]): 660 ng/mL | concentration at 6 h (in vivo [3]; [11]): 211 ng/mL | concentration at 8 h (in vivo [3]; [11]): 118 ng/mL | concentration at 12 h (in vivo [3]; [11]): 37.5 ng/mL | AUC(0-inf) (in vivo [3]; beagle, po, 2 mg/kg, AUCinf): 2690 ng·h/mL | Cmax (in vivo [3]; beagle, po, 2 mg/kg, Cmax): 685 ng/mL | half-life (in vivo [3]; beagle, po, 2 mg/kg): 2.11 h | Tmax (in vivo [3]; beagle, po, 3 mg/kg): 4 h | AUC0-t (in vivo [3]; beagle, po, 3 mg/kg): 2570 ng·h/mL | AUC(0-inf) (in vivo [3]; beagle, po, 3 mg/kg, AUC0-inf): 2690 ng·h/mL | Cmax (in vivo [3]; beagle, po, 3 mg/kg, Co/Cmax): 685 ng/mL | half-life (in vivo [3]; beagle, po, 3 mg/kg): 2.11 h
Compound: O=C(O)c1ccc(-c2ccc(/C=C3\SC(=S)N(Cc4ccccc4)C3=O)o2)cc1 [LA1 (micronized)]

bioavailability (in vivo [1]; F (absolute oral bioavailability)): 37% | MRT (in vivo [1]; po, 2 mg/kg, MRT): 1.54 h | half-life (in vivo [1]; po, 2 mg/kg, t1/2,ß): 1.6 h | Tmax (in vivo [1]; po, 2 mg/kg, tmax): 0.5 h | Rat Cl ([2]; Sprague Dawley, iv, 1 mg/kg): 17.5 mL/min/kg | Vss ([2]; Sprague Dawley, rat): 0.74 L/kg | Rat Cl ([2]; Sprague-Dawley): 18 mL/min/kg | Rat F % ([2]; Sprague-Dawley, ip, 2 mg/kg): 167% | Rat Cl ([2]; Sprague-Dawley, iv, 1 mg/kg): 17.5 mL/min/kg | Rat F % ([2]; Sprague-Dawley, po, 2 mg/kg): 37.1% | % F (absolute IP bioavailability) ([2]; Sprague-Dawley, rat): > 100% | F (absolute oral bioavailability) ([2]; Sprague-Dawley, rat): 37.1% | Vss ([2]; Sprague-Dawley, rat): 0.74 L/kg | AUC0-t [2, 12]: 3252 ng·h/mL | AUC0-∞ [2, 12]: 3270 ng·h/mL | Tlast [2, 12]: 17.0 h | Tmax [2, 12]: 0.25 h | AUC0-t [2, 8]: 967 ng·h/mL | AUC0-∞ [2, 8]: 978 ng·h/mL | C0 [2, 8]: 2142 ng/mL | MRT [2, 8]: 0.91 h | Tlast [2, 8]: 8.00 h | Vd [2, 8]: 1.85 L/kg | AUC0-t [2, 9]: 722 ng·h/mL | AUC0-∞ [2, 9]: 726 ng·h/mL | Tlast [2, 9]: 10.0 h | solubility ([6]; UHQ water, thermodynamic from solid, water, ambient temperature, slurried 4-5 days, corrected for weight of counter-ion, read-out: Aq solub): 724 µg/mL | Appearance [6]: No change | Soln pH [6]: 8 | HPLC purity (%) [6]: 34.7% | Weight gain (%) [7]: 1.4% | XRPD after stressing [7]: No change
Compound: O=C(O)c1ccc(-c2ccc(/C=C3\SC(=S)N(Cc4ccccc4)C3=O)o2)cc1 [LA1 meglumine salt]
microscopic examination of liver tissues [4]: minimal to moderate hepatocellular necrosis in one animal | tumor metastasis in lung tissue [4]: Tumor metastasis was observed in lung tissue from one animal | growth inhibition of B16-F10 tumors as compared to vehicle control [5]: 58-66%

Appearance [6]: Yellow ppt seen | Soln pH [6]: 8 | HPLC purity (%) [6]: 89.7% | physical stability in water ([6]; slurrying 4-5 days, XRPD): not physically stable in water
Compound: NC(CO)(CO)CO [tromethamine]
XRPD after stressing [7]: phase change; also recorded: New pattern (S)

Further lines, the compound ahead of its results:

Compound: [Ca] [calcium]
Appearance [6]: No change | Soln pH [6]: 7 | HPLC purity (%) [6]: 5.58% | Weight gain (%) [7]: 1.7% | XRPD after stressing [7]: More disordered

Compound: C1CNCCN1 [piperazine]
Appearance [6]: No change | Soln pH [6]: 8 | HPLC purity (%) [6]: 5.31% | Weight gain (%) [7]: −5.5% | XRPD after stressing [7]: phase change; also recorded: New pattern (R)
